Test results taken from PubChem BioAssay (NCI).
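Compound exposure: 48 hours, 5 concentrations, 96-well plates. Definition used: TGI = concentration required for complete inhibition of growth.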

Legend:
Test in all cases: DTP human tumour cell line panel, 48 h
SN12C renal = test system: SN12C renal
NCI-H226 lung = test system: NCI-H226 lung
A498 renal = test system: A498 renal
KM12 colon = test system: KM12 colon
K-562 leukemia = test system: K-562 leukemia
MOLT-4 leukemia = test system: MOLT-4 leukemia
UACC-257 melanoma = test system: UACC-257 melanoma
RPMI-8226 leukemia = test system: RPMI-8226 leukemia
COLO 205 colon = test system: COLO 205 colon
BT-549 breast = test system: BT-549 breast
TK-10 renal = test system: TK-10 renal
MDA-MB-231 breast = test system: MDA-MB-231 breast
SK-MEL-2 melanoma = test system: SK-MEL-2 melanoma
OVCAR-5 ovarian = test system: OVCAR-5 ovarian
CAKI-1 renal = test system: CAKI-1 renal
MDA-MB-435 = test system: MDA-MB-435
HCT-116 colon = test system: HCT-116 colon
LOX IMVI melanoma = test system: LOX IMVI melanoma
SK-MEL-5 melanoma = test system: SK-MEL-5 melanoma
SF-539 CNS = test system: SF-539 CNS
EKVX NSCLC = test system: EKVX NSCLC
SK-OV-3 ovarian = test system: SK-OV-3 ovarian
SNB-75 CNS = test system: SNB-75 CNS
786-0 renal = test system: 786-0 renal
NCI-H460 lung = test system: NCI-H460 lung
SF-295 CNS = test system: SF-295 CNS
M14 melanoma = test system: M14 melanoma
SW-620 colon = test system: SW-620 colon
HS 578T breast = test system: HS 578T breast
PC-3 prostate = test system: PC-3 prostate
DU-145 prostate = test system: DU-145 prostate
OVCAR-8 ovarian = test system: OVCAR-8 ovarian
SNB-19 CNS = test system: SNB-19 CNS
HT29 colon = test system: HT29 colon
ACHN renal = test system: ACHN renal
HOP-62 NSCLC = test system: HOP-62 NSCLC
HCT-15 colon = test system: HCT-15 colon
SF-268 CNS = test system: SF-268 CNS
OVCAR-3 ovarian = test system: OVCAR-3 ovarian
HL-60(TB) leukemia = test system: HL-60(TB) leukemia
MCF7 breast = test system: MCF7 breast
MALME-3M melanoma = test system: MALME-3M melanoma
RXF 393 renal = test system: RXF 393 renal
SK-MEL-28 melanoma = test system: SK-MEL-28 melanoma
IGROV1 ovarian = test system: IGROV1 ovarian
NCI/ADR-RES ovarian = test system: NCI/ADR-RES ovarian
U251 CNS = test system: U251 CNS
UACC-62 melanoma = test system: UACC-62 melanoma
UO-31 renal = test system: UO-31 renal
NCI-H23 lung = test system: NCI-H23 lung
CCRF-CEM leukemia = test system: CCRF-CEM leukemia
OVCAR-4 ovarian = test system: OVCAR-4 ovarian
SR leukemia = test system: SR leukemia
HCC-2998 colon = test system: HCC-2998 colon
A549 NSCLC = test system: A549 NSCLC
HOP-92 NSCLC = test system: HOP-92 NSCLC
NCI-H522 lung = test system: NCI-H522 lung

## Cn1cc(NC(=O)c2cc(NC(=O)c3cc(NC=O)cn3C)cn2C)cc1C(=O)NCCC(=N)N
SN12C renal
  TGI: > 100 µM
NCI-H226 lung
  TGI: > 100 µM
A498 renal
  TGI: > 100 µM
KM12 colon
  TGI: > 100 µM
K-562 leukemia
  TGI: > 100 µM
MOLT-4 leukemia
  TGI: > 100 µM
UACC-257 melanoma
  TGI: > 100 µM
RPMI-8226 leukemia
  TGI: > 100 µM
COLO 205 colon
  TGI: > 100 µM
BT-549 breast
  TGI: > 100 µM
TK-10 renal
  TGI: > 100 µM
MDA-MB-231 breast
  TGI: > 100 µM
SK-MEL-2 melanoma
  TGI: > 100 µM
OVCAR-5 ovarian
  TGI: > 100 µM
CAKI-1 renal
  TGI: > 100 µM
MDA-MB-435
  TGI: > 100 µM
HCT-116 colon
  TGI: > 100 µM
LOX IMVI melanoma
  TGI: > 100 µM
SK-MEL-5 melanoma
  TGI: > 100 µM
SF-539 CNS
  TGI: > 100 µM
EKVX NSCLC
  TGI: > 100 µM
SK-OV-3 ovarian
  TGI: > 100 µM
SNB-75 CNS
  TGI: > 100 µM
786-0 renal
  TGI: > 100 µM
NCI-H460 lung
  TGI: > 100 µM
SF-295 CNS
  TGI: > 100 µM
M14 melanoma
  TGI: > 100 µM
SW-620 colon
  TGI: > 100 µM
HS 578T breast
  TGI: > 100 µM
PC-3 prostate
  TGI: > 100 µM
DU-145 prostate
  TGI: > 100 µM
OVCAR-8 ovarian
  TGI: > 100 µM
SNB-19 CNS
  TGI: > 100 µM
HT29 colon
  TGI: > 100 µM
ACHN renal
  TGI: > 100 µM
HOP-62 NSCLC
  TGI: > 100 µM
HCT-15 colon
  TGI: > 100 µM
SF-268 CNS
  TGI: > 100 µM
OVCAR-3 ovarian
  TGI: > 100 µM
HL-60(TB) leukemia
  TGI: > 100 µM
MCF7 breast
  TGI: > 100 µM
MALME-3M melanoma
  TGI: > 100 µM
RXF 393 renal
  TGI: > 100 µM
SK-MEL-28 melanoma
  TGI: > 100 µM
IGROV1 ovarian
  TGI: > 100 µM
NCI/ADR-RES ovarian
  TGI: > 100 µM
U251 CNS
  TGI: > 100 µM
UACC-62 melanoma
  TGI: > 100 µM
UO-31 renal
  TGI: > 100 µM
NCI-H23 lung
  TGI: > 100 µM
CCRF-CEM leukemia
  TGI: > 100 µM

## Cc1ccc(O)c(N=Nc2c(O)cc(S(=O)(=O)O)c3ccccc23)c1
NCI-H226 lung
  TGI: > 100 µM
KM12 colon
  TGI: > 100 µM
K-562 leukemia
  TGI: > 100 µM
OVCAR-4 ovarian
  TGI: > 100 µM
MOLT-4 leukemia
  TGI: 95.3 µM
UACC-257 melanoma
  TGI: > 100 µM
RPMI-8226 leukemia
  TGI: > 100 µM
COLO 205 colon
  TGI: > 100 µM
BT-549 breast
  TGI: > 100 µM
TK-10 renal
  TGI: > 100 µM
MDA-MB-231 breast
  TGI: > 100 µM
SK-MEL-2 melanoma
  TGI: > 100 µM
OVCAR-5 ovarian
  TGI: > 100 µM
CAKI-1 renal
  TGI: > 100 µM
MDA-MB-435
  TGI: > 100 µM
HCT-116 colon
  TGI: 62.5 µM
SK-MEL-5 melanoma
  TGI: 77.6 µM
SF-539 CNS
  TGI: > 100 µM
EKVX NSCLC
  TGI: > 100 µM
SR leukemia
  TGI: > 100 µM
SK-OV-3 ovarian
  TGI: > 100 µM
786-0 renal
  TGI: > 100 µM
NCI-H460 lung
  TGI: > 100 µM
SF-295 CNS
  TGI: > 100 µM
M14 melanoma
  TGI: > 100 µM
SW-620 colon
  TGI: > 100 µM
HS 578T breast
  TGI: > 100 µM
PC-3 prostate
  TGI: > 100 µM
OVCAR-8 ovarian
  TGI: > 100 µM
HT29 colon
  TGI: > 100 µM
ACHN renal
  TGI: > 100 µM
HOP-62 NSCLC
  TGI: > 100 µM
HCT-15 colon
  TGI: > 100 µM
SF-268 CNS
  TGI: > 100 µM
OVCAR-3 ovarian
  TGI: 76.2 µM
HL-60(TB) leukemia
  TGI: 64 µM
HCC-2998 colon
  TGI: > 100 µM
MCF7 breast
  TGI: > 100 µM
MALME-3M melanoma
  TGI: > 100 µM
A549 NSCLC
  TGI: > 100 µM
RXF 393 renal
  TGI: > 100 µM
SK-MEL-28 melanoma
  TGI: > 100 µM
IGROV1 ovarian
  TGI: > 100 µM
NCI/ADR-RES ovarian
  TGI: 86.5 µM
U251 CNS
  TGI: > 100 µM
HOP-92 NSCLC
  TGI: > 100 µM
UACC-62 melanoma
  TGI: > 100 µM
UO-31 renal
  TGI: 79.6 µM
CCRF-CEM leukemia
  TGI: > 100 µM

## O=S(=O)(O)c1ccc(N=Nc2ccc(N=Nc3c(O)ccc4cc(S(=O)(=O)O)ccc34)cc2)cc1
NCI-H226 lung
  TGI: > 100 µM
KM12 colon
  TGI: > 100 µM
K-562 leukemia
  TGI: > 100 µM
MOLT-4 leukemia
  TGI: > 100 µM
UACC-257 melanoma
  TGI: > 100 µM
RPMI-8226 leukemia
  TGI: > 100 µM
COLO 205 colon
  TGI: > 100 µM
BT-549 breast
  TGI: > 100 µM
TK-10 renal
  TGI: > 100 µM
MDA-MB-231 breast
  TGI: > 100 µM
SK-MEL-2 melanoma
  TGI: > 100 µM
OVCAR-5 ovarian
  TGI: > 100 µM
CAKI-1 renal
  TGI: > 100 µM
MDA-MB-435
  TGI: > 100 µM
HCT-116 colon
  TGI: > 100 µM
SK-MEL-5 melanoma
  TGI: > 100 µM
SF-539 CNS
  TGI: > 100 µM
NCI-H522 lung
  TGI: > 100 µM
EKVX NSCLC
  TGI: > 100 µM
SR leukemia
  TGI: > 100 µM
SK-OV-3 ovarian
  TGI: > 100 µM
SNB-75 CNS
  TGI: > 100 µM
786-0 renal
  TGI: > 100 µM
NCI-H460 lung
  TGI: > 100 µM
SF-295 CNS
  TGI: > 100 µM
M14 melanoma
  TGI: > 100 µM
SW-620 colon
  TGI: > 100 µM
HS 578T breast
  TGI: > 100 µM
PC-3 prostate
  TGI: > 100 µM
OVCAR-8 ovarian
  TGI: > 100 µM
SNB-19 CNS
  TGI: > 100 µM
HT29 colon
  TGI: > 100 µM
ACHN renal
  TGI: > 100 µM
HOP-62 NSCLC
  TGI: > 100 µM
HCT-15 colon
  TGI: > 100 µM
SF-268 CNS
  TGI: > 100 µM
OVCAR-3 ovarian
  TGI: > 100 µM
HL-60(TB) leukemia
  TGI: > 100 µM
HCC-2998 colon
  TGI: > 100 µM
MCF7 breast
  TGI: > 100 µM
MALME-3M melanoma
  TGI: > 100 µM
A549 NSCLC
  TGI: > 100 µM
RXF 393 renal
  TGI: > 100 µM
SK-MEL-28 melanoma
  TGI: > 100 µM
IGROV1 ovarian
  TGI: > 100 µM
NCI/ADR-RES ovarian
  TGI: > 100 µM
U251 CNS
  TGI: > 100 µM
HOP-92 NSCLC
  TGI: > 100 µM
UACC-62 melanoma
  TGI: > 100 µM
UO-31 renal
  TGI: > 100 µM
NCI-H23 lung
  TGI: > 100 µM
CCRF-CEM leukemia
  TGI: > 100 µM
